The source of these data is patent publication US20090069429A1 (SGP & SONS AB, priority 2006, published 2009).

One experiment concerns muscle. The experiment in a line: Muscle performance after oral AKG (general conclusions). It is filed as in vivo, rat. Here is the method:
(§1) Animals were kept in a thermostatically controlled chamber, containing the equipment to measure contractile force in isolated rat skeletal muscle, i.e. a computer, analogue-digital transducer, amplifier, differential amplifier, stimulator, […] and 5% carbon dioxide.
(§2) Thermostatically controlled chamber, maintained at 30° C., contained a glass diffuser for efficient oxygenation of buffer, a mounting/stimulation block with 2 pins to fix portion of fibula in place and 2 silver stimulating electrodes.

Experiment [1] relates to fast-twitch extensor digitorum longus muscle (EDL). The experiment in a line: Contractile endurance and force of isolated extensor digitorum longus muscle from rats given AKG, continuous electrical stimulation at 90 Hz. It is filed as in vivo, rat. Here is the method: FIG. 5 presents contracting characteristics of extensor digitorum longus muscle in uremic rats+test component (n=3) and control rats+test component (n=2) incubated in Krebs Ringer solution and uremic rats+test component (n=3) incubated in Uremic Buffer (30 min.), 90 Hz, 1 ms and <90V.
as §1, §2

Experiment [2] concerns slow-twitch soleus muscle. Description: Contractile endurance and force of isolated soleus muscle from rats given AKG, continuous electrical stimulation at 40 Hz. It is filed as in vivo, rat. Here is the method: FIG. 4 presents contracting characteristics of soleus muscles in uremic rats +test component (n=10), control rats+placebo (n=8), control rats+test component (n=4) incubated in Krebs Ringer physiological solution (30 min. incubation) and electrically stimulated at 40 Hz (32 mA, 1 ms, <90V).
as §1, §2

The test system of a further experiment is soleus muscles. The following applies: 48-h T3 subcutaneously; 90 Hz continuous stimulation; cited from earlier work.
[3] abbreviates: AKG-administered uremic rats, Krebs Ringer vs Uremic buffer incubation.

Entries after “also recorded” stand apart in the source; their conditions may differ.

On to `O=C(O)CCC(=O)C(=O)O` [AKG, alpha-ketoglutarate], for which the “effect on muscle performance in terms of endurance during sustained contraction” value in the experiment on muscle (AKG administration) was “beneficial effect”. For the same compound, the “peripheral fatigue during sustained contraction at normal working frequency” value in the experiment on muscle (oral AKG) was “reduce”. The “period within which muscle function improves” value in the experiment with muscle (oral preparation) is listed as at most 21 days. Moreover, the “endurance performance of extensor digitorum longus muscle” value in experiment [1] (AKG administered uremic rats vs placebo administered uremic rats) is recorded as “improved performance”. Moreover, the “endurance profile of extensor digitorum longus muscle (buffer effect)” value in experiment [1] (setting [3]) is “better endurance profile”. Moreover, the “slowing of Rate of Force Generation” value in experiment [1] (fast-twitch muscles, oral treatment 21 days or less) is on record as around 8.5%; in experiment [2] (slow-twitch muscles, oral treatment 21 days or less) it was around 130%. Moreover, the “Maximal Isometric Force improvement” value in experiment [1] (fast-twitch muscles, oral treatment 21 days or less, vs untreated controls) amounted to 28%; in experiment [2] (slow-twitch muscles, oral treatment 21 days or less, vs untreated controls), 12%. Besides, in experiment [2] (setting [3]), the “endurance profile of soleus muscle (buffer effect)” value is given as “better endurance profile”. In addition, the “endurance of soleus muscles” value in experiment [2] (control rats given AKG vs placebo, incubated in Krebs Ringer) was “improves the endurance; also recorded: improved endurance”.
`N[C@@H](Cc1cc(I)c(Oc2ccc(O)c(I)c2)c(I)c1)C(=O)O` [T3, 3,5,3′-triiodothyronine]: in the experiment with soleus muscles, the “rate of fatigue of soleus muscle” value is given as “rapid rate of fatigue”.
